{"source": "patent US20250298027A1", "about": "“METHOD OF EVALUATING SMALL MOLECULE DISTRIBUTION USING TELLUROPHENE ANALOGUES” (THE GOVERNING COUNCIL OF THE UNIVERSITY OF TORONTO, priority 2022, published 2025)", "key": {"[1]": {"target": "T1, Top2 (Homo sapiens, UniProt P11388)", "T1 construct": "purchased TopoGEN, Inc", "T1 sequence (P11388 whole entry)": "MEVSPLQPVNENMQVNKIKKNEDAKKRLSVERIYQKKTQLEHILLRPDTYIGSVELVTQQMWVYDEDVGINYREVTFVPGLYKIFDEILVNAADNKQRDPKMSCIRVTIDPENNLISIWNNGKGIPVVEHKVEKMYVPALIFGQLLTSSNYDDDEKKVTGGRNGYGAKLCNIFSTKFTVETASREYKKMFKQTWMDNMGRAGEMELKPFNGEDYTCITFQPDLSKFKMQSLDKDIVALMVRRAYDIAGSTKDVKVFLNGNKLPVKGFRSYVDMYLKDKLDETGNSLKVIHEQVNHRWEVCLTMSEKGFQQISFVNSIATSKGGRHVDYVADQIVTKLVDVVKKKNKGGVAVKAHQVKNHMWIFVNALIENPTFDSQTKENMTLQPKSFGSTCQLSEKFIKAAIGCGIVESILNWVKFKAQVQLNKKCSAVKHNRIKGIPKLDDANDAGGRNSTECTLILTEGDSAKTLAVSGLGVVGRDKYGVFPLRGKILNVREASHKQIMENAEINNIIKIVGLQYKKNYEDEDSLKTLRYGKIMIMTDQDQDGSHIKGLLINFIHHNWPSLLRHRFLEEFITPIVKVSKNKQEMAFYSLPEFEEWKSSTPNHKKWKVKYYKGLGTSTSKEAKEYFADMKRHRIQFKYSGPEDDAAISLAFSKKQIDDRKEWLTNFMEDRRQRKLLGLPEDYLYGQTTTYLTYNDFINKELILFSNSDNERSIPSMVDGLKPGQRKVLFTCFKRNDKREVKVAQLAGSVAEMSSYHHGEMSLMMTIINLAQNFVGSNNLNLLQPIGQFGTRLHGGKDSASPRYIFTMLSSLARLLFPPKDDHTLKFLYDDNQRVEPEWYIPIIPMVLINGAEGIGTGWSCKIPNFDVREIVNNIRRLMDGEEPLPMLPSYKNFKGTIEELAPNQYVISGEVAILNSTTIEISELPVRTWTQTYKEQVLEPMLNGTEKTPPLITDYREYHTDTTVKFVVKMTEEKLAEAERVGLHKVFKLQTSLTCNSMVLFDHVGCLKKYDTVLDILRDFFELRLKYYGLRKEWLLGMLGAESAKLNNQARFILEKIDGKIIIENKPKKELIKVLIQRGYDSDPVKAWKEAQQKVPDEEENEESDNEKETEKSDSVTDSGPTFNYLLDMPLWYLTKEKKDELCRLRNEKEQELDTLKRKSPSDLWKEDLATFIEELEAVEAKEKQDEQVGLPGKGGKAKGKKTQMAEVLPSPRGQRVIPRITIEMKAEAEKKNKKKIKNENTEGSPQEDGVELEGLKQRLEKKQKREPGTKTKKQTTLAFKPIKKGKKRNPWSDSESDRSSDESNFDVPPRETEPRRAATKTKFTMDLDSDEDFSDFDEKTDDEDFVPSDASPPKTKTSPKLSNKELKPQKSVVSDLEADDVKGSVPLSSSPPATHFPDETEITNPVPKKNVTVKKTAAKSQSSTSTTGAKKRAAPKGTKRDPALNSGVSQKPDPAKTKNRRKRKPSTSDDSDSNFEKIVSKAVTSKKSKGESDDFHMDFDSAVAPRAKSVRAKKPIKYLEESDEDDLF", "test": "Top2 decatenation assay using kinetoplast DNA", "format": "biochemical", "experimental": "The relative Top2 inhibitory activity of 1 in comparison to teniposide was evaluated in decatenation assays using kinetoplast DNA (kDNA). Decatenation of the DNA, catalyzed by Top2, can be readily resolved using agarose gel electrophoresis.\nTop2 decatenation assay: The assay was performed according to manufacturer's protocol (TopoGEN, Inc.). The total reaction volume was 20 μL of assay buffer (120 mM KCl, 50 mM Tris-HCl, 10 mM MgCl2, 0.5 mM DTT, 0.5 mM ATP, and 30 μg/mL BSA) and 120 ng of kinetoplast DNA (kDNA) substrate. One unit of TopoII enzyme in was added to reaction microfuge tubes in the presence or absence of inhibitor. The reaction was incubated for 30 min at 37° C. The reaction was stopped by addition of 5 μL of stop buffer (5% sarkosyl, 0.025% bromophenolblue, and 50% glycerol). The samples were then analyzed using electrophoresis using a 1% agarose gel in Tris-borate-EDTA buffer with 0.5 pg/mL ethidium bromide stain. Gels were imaged using Syngene G: Box Gel Imager (Chemi-XT4 GENESys software with preset for ethidium bromide stained agarose gels). Band intensities were analyzed using ImageJ software."}, "[2]": {"tested_on": "pH2AX^Ser139", "test": "pH2AX Western blotting in PANC-1 cells", "format": "cell-based, Human", "details": "1 μM, 24 and 48 hours", "experimental": "Next, the ability of 1 to induce DSBs—the dominant type of DNA damage resulting from Top2 inhibition was investigated. In response to DSBs, a cascade of DNA repair mechanisms are triggered, including-phosphorylation of the histone variant H2AX at Ser139. Thus, the level of pH2AX^Ser139 serves as a reliable marker for Top2-linked DSBs. Western blotting was used to measure pH2AX^Ser139 in PANC-1 cells treated with 1 μM of either 1 or teniposide for 24 and 48 hours.\npH2AX Blotting: PANC-1 cells (0.5×10^6) cells were seeded in 60 mm plastic petri dishes (Corning Inc. NY) and incubated for 18 h. The spent medium is removed and replaced with fresh medium containing drug ([…]) and incubated for either 24 or 48h. Control cells were treated with DMSO only. The cells were then lysed with RIPA buffer (25 mM Tris·HCl PH 7.6, 150 mM NaCl, 1% NP-40, 1% sodium deoxycholate, 0.1% SDS) (ThermoFisher Scientific) containing Halt Protease Inhibitor Cocktail (Cat. No. 78410) and Halt Phosphatase Inhibitor Cocktail (Cat. No. 78420) as per manufacturer's protocol. […] Antibodies (Abcam, Cambridge, MA) targeting the following proteins were used H2AX (S139) (ab11174, polyclonal) and β-tubulin (ab6046, polyclonal)."}, "[3]": {"tested_on": "HL-60 cells", "test": "Competitive binding / cell labelling by mass cytometry (CyTOF) in HL-60 cells", "format": "cell-based", "experimental": "To determine if cellular labelling with 1 was dependent on the presence of Top2-DNA binding sites a competitive binding MC experiment was carried out using Teniposide. HL-60 cells were treated with teniposide (10 μM) for two hours to saturate intracellular Top2-DNA ternary complexes with an unlabelled ligand, next 1 (2 or 10 μM) was introduced into the cell media and the suspension was gently mixed. After two hours, cells were harvested and washed three times with PBS. Cells were then fixed and permeabilized, followed by DNA staining with Ir-intercalator. Cell pellets were analyzed by MC for ^130Te content (FIG. 6).\nAdditionally, co-incubation experiments were conducted where HL-60 cells were treated with a cocktail of 1 (2 μM) and either 2, 10, or 20 μM teniposide (FIG. 6B). […] Without wishing to be bound by theory, it is hypothesized that the lack of competitive labelling observed in these experiments may be due to a combination of inhibition of Top2 and a considerable degree of non-specific binding with other cellular components. Several reports have documented the non-specific accumulation of etoposide and teniposide via oxidation catalyzed by cytochrome P450-dependent monooxygenases, peroxidases and tyrosinase enzymes. […] It is also plausible these reactive species modify other intracellular proteins, thus contributing to drug accumulation inside cells, but in a promiscuous and irreversible manner. […] In this case, the non-specific binding may dominate the target binding of teniposide, and likely its analogue Te-teniposide 1.\nCYTOF® labelling: For pre-saturation experiment, 3×10^6 HL-60 cells (5×10^5 cells/mL) were incubated with appropriate teniposide concentration for 2 hours at 37° C. in a humidified atmosphere of 5% CO2 in air. Compound 1 was pipetted into the cell suspension and gently mixed. Cells were further incubated for 2 hours and then centrifuged for 6 min at 300×g, and the media was aspirated. For controls, HL-60 cells were treated with teniposide or compound 1 for 4 hours consecutively. […] Samples were then injected into the CYTOF® Helios™ and analyzed."}, "[4]": {"tested_on": "pH2AX^Ser139", "test": "pH2AX immunohistochemistry of PANC-1 xenograft tumour sections", "format": "in vivo, mice", "details": "20 mg/kg IP, 2 hours", "experimental": "PANC-1 xenograft-bearing mice were injected with either teniposide or the Te-teniposide analogue 1 IP. A dose of 20 mg/kg was selected based on literature reports detailing teniposide drug delivery strategies. After 2 hours, mice were sacrificed and tissues of interest were harvested, formalin fixed, and paraffin embedded. Tissue sections (5 um) were cut and mounted onto microscopy slides. The expression of pH2AX^Ser139 levels were first assessed by immunohistochemistry. Serial sections derived from PANC-1 xenograft tumours were stained with primary antibody and subsequently HRP-conjugated secondary antibody for standard brown staining. DSBs are indicated by large, discrete pH2AX^Ser139 foci. Representative images of immunostained slides show increased pH2AX^Ser139 levels in treated mice relative to saline injected control with clear, punctate staining (FIG. 7)."}}, "data": [{"compound": "COc1cc([C@@H]2c3cc4c(cc3[C@@H](OC3OC5COC(c6ccc[te]6)OC5C(O)C3O)[C@H]3COC(=O)C23)OCO4)cc(OC)c1O", "note": "(stereo partly shown) [Compound 1, Tellurium-labelled teniposide]", "values": [{"measurement": "IC50", "setting": "[1]", "result": 5.6, "unit": "µM"}, {"measurement": "inhibition of the decatenation reaction", "setting": "[1]; 5, 10, 25 and 50 μM", "result": "dose-dependent inhibition"}, {"measurement": "levels of pH2AX^Ser139 relative to DMSO-treated control", "setting": "[2]", "result": "Increased levels"}, {"measurement": "competition for Top2 in co-incubation", "setting": "[3]; 1 (2 μM) with 2, 10 or 20 μM teniposide", "result": "no competition"}, {"measurement": "cell labelling (^130Te) by MC", "setting": "[3]; 2 and 10 μM", "result": "readily detected"}, {"measurement": "reduction of ^130Te signal in cells pretreated with unlabeled teniposide", "setting": "[3]; teniposide 10 μM for two hours, then 1 at 2 or 10 μM for two hours", "result": "not observed"}, {"measurement": "pH2AX^Ser139 levels in tumour sections relative to saline injected control", "setting": "[4]", "result": "increased"}]}]}
